According to patent US20230263808A1 (UNIVERSITY OF FLORIDA RESEARCH FOUNDATION, INCORPORATED, priority 2020, published 2023):
Entries after “also recorded” stand apart in the source; their conditions may differ.

How the values were obtained:
[1] = test system: IL-1β-induced IL-6 secretion by A549 lung cells; experiment: IL-1β-induced IL-6 secretion by A549 lung cells (AlphaLISA); type: cell-based; settings: 10 μM
Description: A) Correlation of correlation (COC) plots where each point represents the Pearson correlation coefficient, r, between a distinct gene expression or GR-peptide interaction assay with assays indicated on the x and y axes. B) The effects of all tested compounds on IL-1β-induced secretion of IL-6 (y axes) and GC-regulated phenotypes indicated on the x axes. C) The effects of all tested compounds on IL-1β-induced secretion of IL-6 (y axis) and bone mineralization (x axis). D) IL-1β-induced IL-6 production by A549 cells treated with 10 μM of the indicated compounds was compared by AlphaLISA. E-H) Myoblasts were assayed as described in FIG. 8. I) Representative myoblasts imaged during the mitochondrial potential assay. J) Plasma TNFα levels of C57BL/6 male mice treated pretreated with the indicated ligands. K) Changes in lean mass of mice in panel J were determined by whole-body NMR after an additional 18 h LPS treatment. Data shown are mean+SEM.
In order to understand whether effects on skeletal muscle could be dissociated from anti-inflammatory effects of the ligands, we profiled the compounds for suppression of IL1β-induced IL-6 secretion by A549 lung cells. Examining the correlations between assays can be used to identify dissociated assays that selectively correlate with a given phenotype, predicting discovery of dissociated ligands. […] We call this a correlation of correlations (COC) plot. […] These include recruitment of NCOA2 and NCOA3 peptides, coactivators that we and others have shown to be required for GC-dependent suppression of inflammation in different cell types (FIG. 11, A). However, for the mitochondrial assay and IL-6, there are dissociated assays shown by points that are far out from the regression line in the COC plot (FIG. 7, A). For example, interaction of CHD9 with GR predicted mitochondrial activity but not Glut4 translocation (FIG. 11, B), while interaction with the CENPR peptide selectively predicted effects on Glut4 translocation (FIG. 11, C). […] Assays that correlated with effects of the ligands on GR nuclear translocation were also highly correlated with Glut4 translocation and suppression of IL-6 secretion (FIG. 11, F). Therefore, the COC curves provide a way to identify common signaling mechanisms between different GR target tissues and signaling pathways.

[2] = test system: primary human osteoblasts; experiment: Osteoblast mineralization (Alizarin Red S) from mesenchymal stem cells; type: cell-based
Experimental: A) Each dot represents the effects of a compound in the indicated assays at 10 uM. N=4-6 from two different experiments. […] C) SR11466 is efficacious at inhibiting IL-6 secretion from A549 cells. C-E). […] D) Mitochondrial activity was measured in myoblasts using high content imaging with mitotracker dye after 24 treatment. New amino acid incorporation was measured with LICOR in cell western for puromycin (SunSet assay). E) top, MMTV-luciferase reporter data. N=3, mean+SEM. Bottom, Mineralization of primary human OBs was assayed after two weeks of differentiation from MSC and two weeks of mineralization. N=4, mean+SEM, 2-way ANOVA.
As a further test for dissociation, the compounds were profiled in primary human osteoblasts for effects on osteogenesis during 4 weeks of differentiation from mesenchymal stem cells. Specifically, osteoblast mineralization was examined as follows. Human mesenchymal stem cells (MSCs) at passage 2 were maintained in growth media consisted of alpha-MEM (Life Technologies, 32561-037) supplemented with 17% FBS (Sigma-Aldrich, 12303C), 2 mM L-glutarnine (Life Technologies, 25030-081), and 100 units/mL penicillin/streptomycin (Life Technologies, 15140-122). Effect of glucocorticoid receptor modulators on osteogenic differentiation of MSCs was quantified using Alizarin Red S (Sigma-Aldrich, A5533) staining. Briefly, human MSCs were seeded in the middle 8 wells of 48-well plates at plating density of 10,000 cells per well. PBS (Life Technologies, 10010-031) was added to surrounding wells to reduce evaporation of media in the middle wells during prolonged incubation. 24 h later, growth media was replaced by osteogenic induction media (OIM) consisted of low-glucose DMEM (Life Technologies, 10567-014) supplemented with 10% FBS (Sigma-Aldrich. 12303C), 50 μg/ml L-ascorbic-2-phosphate (Sigma-Aldrich, A8960), 10 mM β-glyceroiphosphate (Sigma-Aldrich, G9891), and glucocorticoid modulators. OIM containing test compounds was replaced every week. At the end of 2 weeks, monolayers were washed with PBS (Life Technologies, 10010-031), incubated in Richard-Allan Scientific™ Neutral Buffered Formalin (10%) (Thermo Scientific, 5725) for 2 h at room temperature, washed with deionized water and stained with Alizarin Red S for 30 min at room temperature. Monolayers were then rinsed 3×with deionized water until clear, stain was then extracted with 10% (w/v) cetylpyridinium chloride (Sigma-Aldrich, C0732) in 10 mM sodium phosphate (Sigma, S5011 and S5136), pH 7.0 for 15 min at room temperature and the amount of extracted dye quantified spectroscopically at 562 nm. Spectroscopic analysis performed using a synergy™ NEO HTS Multi-Mode Microplate Reader (BioTek Instruments, Inc.).

Structure (SMILES)	inhibition of IL-1β-induced IL-6 secretion (anti-inflammatory) [1]	effect on mineralization (bone) [2]
C=CCOC1CC2(C)C(CCC2(O)C#CC)C2CCc3cc(C(=O)Nc4cccnc4C)ccc3C12 (centres unmarked) [SR11466]	as efficiently as Dex; also recorded: fully inhibiting IL-6 secretion; also recorded: efficacious; also recorded: inhibited IL-6 secretion as efficiently as dexamethasone	modest improvements on mineralization
CC#CC1(O)CCC2C3CCc4cc(C(=O)Nc5cnccc5C)ccc4C3C(O)CC21C (centres unmarked) [SR15421]	anti-inflammatory	completely bone sparing
CC#CC1(O)CCC2C3CCc4cc(C(=O)Nc5cccnc5C)ccc4C3C(OCc3ccccc3Cl)CC21C (centres unmarked) [SR16024]	partially inhibited; also recorded: weakly anti-inflammatory	bone sparing
CC#CC1(O)CCC2C3CCc4cc(C(=O)Nc5cccnc5C)ccc4C3C(OCc3ccc(Cl)cc3)CC21C (centres unmarked) [SR16025]	weakly anti-inflammatory	more than quadrupled; also recorded: quadruple
